# US11260056B2, “Diaminopyrimidine P2X3 and P2X2/3 receptor modulators for use in the treatment of cough” (Afferent Pharmaceuticals, Inc., priority 2015, dated 2022)
# Legend:
# Assay type in all cases: in vivo, human
# [1] = Phase 1/Phase 2 clinical studies: safety, tolerability and pharmacokinetics after oral administration
# Method: Compound 16 has progressed to completion of 6 Phase 1 studies and 5 Phase 2 studies, with several studies in progress or soon to commence, and over 400 subjects dosed at least once with Compound 16. […] Studies in normal healthy volunteers have explored safety, tolerability and pharmacokinetics of Compound 16 following oral administration of doses from 10 mg to 1800 mg for up to 3 weeks. […] Plasma half-life falls in the range of 7-9 h, with steady state for BID dosing achieved after 3 doses.
# chronic cough patients = test: Phase 2b dose-escalation crossover study in chronic cough patients
# Method: Cough frequency was measured objectively utilizing a cough recording device, with periodic measurements following Compound 16 treatment compared to a baseline recording.
# The 29-patient randomized, double-blind, placebo controlled, Phase 2b crossover study was conducted at 10 clinical sites in the U.S. Patients were randomized to either Compound 16 or placebo arms. Those in the treatment group received Compound 16 50 mg, followed by a titration up to 100 mg, 150 mg and 200 mg, with each dose given twice daily for four days. Treatment period one was followed by a 3-5 day washout period. Patients were then crossed over to the alternate arm of the study and treated with either Compound 16 or placebo for 16 more days.
# [2] = test system: treatment-resistant chronic cough patients; test: Double-blind randomized placebo-controlled crossover trial in idiopathic/treatment-resistant chronic cough; conditions: 600 mg bd
# Method: Thus, the inventors explored the role of P2X3 receptors in the sensitization of vagal pathways mediating the cough reflex leading to chronic cough (CC). A study was performed to investigate the efficacy of oral administration of Compound 16 in reducing daytime cough in idiopathic/treatment-resistant chronic cough.
# In this study, a double-blind randomized placebo-controlled crossover trial, 24 subjects (19 women, mean age 55 yrs) were randomized into a double blind, placebo-controlled, 2-period, crossover study, of Compound 16, 600 mg bd. Cough was assessed using an ambulatory sound monitoring system at baseline and after 2 weeks of treatment; primary endpoint, daytime objective cough frequency (coughs/hr) (VitaloJAK™); secondary endpoints, cough severity and urge to cough (UTC) visual analogue scales (VAS), global ratings of change and cough quality of life questionnaire (CQLQ).
structure (smiles),measurement,setting,value
"COc1cc(C(C)C)c(Oc2cnc(N)nc2N)cc1S(N)(=O)=O [Compound 16, 5-(2,4-Diamino-pyrimidin-5-yloxy)-4-isopropyl-2-methoxy-benzenesulfonamide]",steady state for BID dosing achieved after,"[1]; human, oral BID dosing",3 doses
same,oral bioavailability,"[1]; human, based on % dose recovered in urine",appears to be high
same,Clinical safety,"[1]; over 400 subjects dosed at least once, 10 mg to 1800 mg",excellent
same,adverse events (AEs),"[1]; patients and healthy volunteers, dose-dependent, notable at higher dose levels",limited to oropharyngeal findings (hypogeusia)
same,half-life,"[1]; plasma, human, oral, immediate release formulation",7 to 9 h
same,incidence of decreased taste acuity,chronic cough patients; 50 mg dose versus 600 mg twice daily in the first study,much less at the 50 mg dose
same,tolerability,chronic cough patients; 50-200 mg twice daily,generally well tolerated
same,patients who discontinued treatment due to the taste effect,"chronic cough patients; at any dose, 29 patients",Only one patient discontinued treatment
same,"CQLQ (cough quality of life questionnaire), mean difference vs. placebo","[2]; 2 weeks, (−2 to −17), p=0.018",−9
same,"UTC (urge to cough) VAS, mean difference vs. placebo","[2]; 2 weeks, (−2 to −41), p=0.035",−21 mm
same,"cough severity VAS, mean difference vs. placebo","[2]; 2 weeks, (−10 to −42), p=0.003",−26 mm
same,"daytime coughs/hr, mean difference vs. placebo","[2]; after 2 weeks of treatment, 95% CI −50 to −88, p<0.001",−75%
same,patients who rated an improved cough,[2]; compared to 2/22 treated with placebo,13/24
same,reduction in objective daytime cough counts,[2]; patients with refractory chronic cough,75%
